In ChEMBL document CHEMBL1201862, “PubChem BioAssay data set” (2004):
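Five compound concentrations were applied to cells in 96-well plates for 48 hours; endpoints were derived by simple linear interpolation of the resulting dose-response curve. GI50 marks 50% less growth.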 Calls of active or inactive are those of the source. Rule as the data show it: active = GI50 up to about 1.1 µM and inactive = higher.

Tests used:
Assay in all cases: inhibition of tumour cell growth, NCI panel, 48 h
OVCAR-8 = test system: OVCAR-8
K562 = test system: K562
Hs-578T = test system: Hs-578T
SF-539 = test system: SF-539
HCT-15 = test system: HCT-15
OVCAR-4 = test system: OVCAR-4
NCI/ADR-RES = test system: NCI/ADR-RES
OVCAR-5 = test system: OVCAR-5
NCI-H23 = test system: NCI-H23
NCI-H460 = test system: NCI-H460
DU-145 = test system: DU-145
CCRF-CEM = test system: CCRF-CEM
ACHN = test system: ACHN
COLO 205 = test system: COLO 205
UACC-62 = test system: UACC-62
SK-MEL-5 = test system: SK-MEL-5
HT-29 = test system: HT-29
T47D = test system: T47D
TK-10 = test system: TK-10
HCC 2998 = test system: HCC 2998

Compound | GI50 (OVCAR-8) | GI50 (K562) | GI50 (Hs-578T) | GI50 (SF-539) | GI50 (HCT-15) | GI50 (OVCAR-4) | GI50 (NCI/ADR-RES) | GI50 (OVCAR-5) | GI50 (NCI-H23) | GI50 (NCI-H460) | GI50 (DU-145) | GI50 (CCRF-CEM) | GI50 (ACHN) | GI50 (COLO 205) | GI50 (UACC-62) | GI50 (SK-MEL-5) | GI50 (HT-29) | GI50 (T47D) | GI50 (TK-10) | GI50 (HCC 2998)
COc1cccc(-c2ccc3c4c2O[C@H]2C(=O)CC[C@@]5(O)[C@@H](C3)N(CC3CC3)CC[C@]425)c1 | 18.5 µM (inactive) | 13.5 µM (inactive) | 12.3 µM (inactive) | 14.7 µM (inactive) | 13.6 µM | 15.1 µM (inactive) | 19.4 µM (inactive) | 17.9 µM (inactive) | 24.9 µM (inactive) | 28.9 µM (inactive) | 24.4 µM (inactive) | 7.29 µM (inactive) | 18.1 µM (inactive) | 13 µM (inactive) | 17.1 µM (inactive) | 14.8 µM (inactive) | 11.6 µM (inactive) | 18.4 µM (inactive) | 17.3 µM (inactive) | 
CCOC(=O)[C@@H]1[C@@H](c2ccccc2)N(C)O[C@@]1(c1ccccc1)C(F)(F)F | > 100 µM (inactive) | > 10 µM (inactive) | > 100 µM (inactive) |  | 40.1 µM | 77.3 µM (inactive) | > 100 µM (inactive) | > 100 µM (inactive) | 59.6 µM (inactive) |  | > 100 µM (inactive) | 20.1 µM (inactive) | 44.8 µM (inactive) | > 100 µM (inactive) | 43.5 µM (inactive) | 27 µM (inactive) | 18.7 µM (inactive) | 67.9 µM (inactive) | > 100 µM (inactive) | 
C=C(C)C(=O)OC1CC2=CC(CC3(C)OC3C3OC(=O)C(=C)C13)OC2=O (centres undefined) | 9.66 µM (inactive) |  | 22.6 µM (inactive) | 10.9 µM (inactive) | 8.07 µM | 12.6 µM (inactive) |  | 20 µM (inactive) | 15.4 µM (inactive) | 17.9 µM (inactive) | 23.7 µM (inactive) |  | 5.41 µM (inactive) | 2.91 µM (inactive) | 9.18 µM (inactive) | 16.9 µM (inactive) | 6.97 µM (inactive) | 4.67 µM (inactive) | 7.73 µM (inactive) | 20 µM (inactive)
O=C(CN1CCOCC1)NC1=Nc2ncccc2C(=O)NN1 | > 10 µM (inactive) | > 10 µM (inactive) | > 10 µM (inactive) | > 10 µM (inactive) | > 10 µM |  |  | > 10 µM (inactive) | > 10 µM (inactive) | > 10 µM (inactive) | > 10 µM (inactive) | > 10 µM (inactive) | > 10 µM (inactive) |  | > 10 µM (inactive) | > 10 µM (inactive) | > 10 µM (inactive) | > 10 µM (inactive) | > 10 µM (inactive) | 
c1ccc([B-]2(c3ccccc3)OCCc3cccc[n+]32)cc1 | 75 µM (inactive) | > 100 µM (inactive) | 37.7 µM (inactive) | 28.5 µM (inactive) | 44.5 µM | 82.4 µM (inactive) | 59 µM (inactive) | > 100 µM (inactive) | 48.8 µM (inactive) | 60.3 µM (inactive) | 88.1 µM (inactive) | 23.4 µM (inactive) | 37.9 µM (inactive) | 26.2 µM (inactive) | 58.3 µM (inactive) | 41.2 µM (inactive) | 87.1 µM (inactive) | 41 µM (inactive) | 54.3 µM (inactive) | 
C[N+](C)([O-])CCC=C1c2ccccc2CCc2ccccc21 | 23.4 µM (inactive) | 19.2 µM (inactive) | 25.6 µM (inactive) | 36.9 µM (inactive) | 27.7 µM | 28.2 µM (inactive) | 22 µM (inactive) | 33.3 µM (inactive) | 34.1 µM (inactive) | 31.3 µM (inactive) | 26 µM (inactive) | 18.6 µM (inactive) | 35 µM (inactive) | 20 µM (inactive) | 17.1 µM (inactive) | 17.7 µM (inactive) | 22.3 µM (inactive) | 22.2 µM (inactive) | 53.2 µM (inactive) | 
CCOC(=O)c1cc2cc(C)cc(C(=O)c3ccc([N+](=O)[O-])cc3)c2[nH]1 |  | > 100 µM (inactive) | 41.2 µM (inactive) | > 100 µM (inactive) | > 100 µM | > 100 µM (inactive) |  | > 100 µM (inactive) | > 100 µM (inactive) | > 100 µM (inactive) | > 100 µM (inactive) | > 10 µM (inactive) | > 100 µM (inactive) | > 100 µM (inactive) | > 100 µM (inactive) | > 100 µM (inactive) | > 100 µM (inactive) | > 100 µM (inactive) | > 100 µM (inactive) | > 100 µM (inactive)
O=C(O[C@H]1CCN2C[C@H]3C[C@H](CN4C(=O)CCC[C@H]34)[C@@H]2C1)c1ccc(O)cc1 | > 100 µM (inactive) | > 100 µM (inactive) | > 100 µM (inactive) | > 100 µM (inactive) | > 100 µM | > 100 µM (inactive) |  | > 100 µM (inactive) | > 100 µM (inactive) | > 100 µM (inactive) | > 100 µM (inactive) | > 100 µM (inactive) | > 100 µM (inactive) | > 100 µM (inactive) | > 100 µM (inactive) |  | > 100 µM (inactive) | > 100 µM (inactive) | > 100 µM (inactive) | > 100 µM (inactive)
O=S(=O)(/N=c1\[nH]c(-c2cc(O)c(O)c(O)c2)cs1)c1ccc(Cl)cc1Cl | 0.034 µM (active) | 18.6 µM (inactive) | 20.1 µM (inactive) | 27.6 µM (inactive) | 17.2 µM | 22.1 µM (inactive) | 26.4 µM (inactive) | 18.2 µM (inactive) | 26.5 µM (inactive) | 18.7 µM (inactive) | 20.3 µM (inactive) | 19.9 µM (inactive) | 14.6 µM (inactive) | 22 µM (inactive) | > 100 µM (inactive) | 17.1 µM (inactive) | 22.8 µM (inactive) | 15.3 µM (inactive) | 4.65 µM (inactive) | 
COC(=O)C1=C(C)NC(=S)NC1c1ccc(N(CCCl)CCCl)cc1Cl (centres undefined) | 31 µM (inactive) | 8.99 µM (inactive) | > 22 µM (inactive) | > 72.6 µM (inactive) | 9.91 µM | 16.3 µM (inactive) | 37 µM (inactive) | 56.5 µM (inactive) | 5.45 µM (inactive) | 22 µM (inactive) | 12.4 µM (inactive) | 0.824 µM (active) | 11 µM (inactive) | 25.3 µM (inactive) | 3.05 µM (inactive) | 1.82 µM (inactive) | 32.5 µM (inactive) | 6.71 µM (inactive) | 32.4 µM (inactive) | 
c1nncn1C12C3C4C5C3C1C5C42 (centres undefined) | > 100 µM (inactive) | > 100 µM (inactive) | > 100 µM (inactive) | > 100 µM (inactive) | > 100 µM |  | > 100 µM (inactive) | > 100 µM (inactive) | > 100 µM (inactive) | > 100 µM (inactive) | > 100 µM (inactive) | > 100 µM (inactive) | > 100 µM (inactive) | > 100 µM (inactive) |  | > 100 µM (inactive) | > 100 µM (inactive) | > 100 µM (inactive) | > 100 µM (inactive) | > 100 µM (inactive)
